Measurements taken from ChEMBL document CHEMBL4346703, “Structure Overhaul Affords a Potent Purine PI3Kδ Inhibitor with Improved Tolerability” (J Med Chem, 2019).
pIC50: −log10 of the molar value.

Experiments:
[1] = target: PI3-kinase p110-alpha/p85-alpha (Homo sapiens, UniProt P42336); assay: Inhibition of N-terminal His6-tagged recombinant full length human p110alpha/untagged recombinant full length human p85alpha expressed in baculovirus infected Sf21 insect cells using PIP2 as substrate preincubated for 15 mins followed by substrate addition and measured after 1 hr by HTRF assay
[2] = target: PI3-kinase p110-delta/p85-alpha (Homo sapiens, UniProt O00329); assay: Inhibition of N-terminal His6-tagged recombinant full length human p110delta/untagged recombinant full length human p85alpha expressed in baculovirus infected Sf21 insect cells using PIP2 as substrate preincubated for 15 mins followed by substrate addition and measured after 1 hr by HTRF assay
[3] = target: T1, Phosphatidylinositol 4,5-bisphosphate 3-kinase catalytic subunit delta isoform (Homo sapiens, UniProt O00329); assay: Inhibition of PI3Kdelta in human Ramos cells assessed as reduction in anti-IgM-antibody-induced phosphorylation of AKT at Ser473 residue preincubated for 20 mins followed by anti-IgM antibody stimulation and measured after 30 mins by alphascreen assay; type: cell-based
T1 sequence (O00329 whole entry): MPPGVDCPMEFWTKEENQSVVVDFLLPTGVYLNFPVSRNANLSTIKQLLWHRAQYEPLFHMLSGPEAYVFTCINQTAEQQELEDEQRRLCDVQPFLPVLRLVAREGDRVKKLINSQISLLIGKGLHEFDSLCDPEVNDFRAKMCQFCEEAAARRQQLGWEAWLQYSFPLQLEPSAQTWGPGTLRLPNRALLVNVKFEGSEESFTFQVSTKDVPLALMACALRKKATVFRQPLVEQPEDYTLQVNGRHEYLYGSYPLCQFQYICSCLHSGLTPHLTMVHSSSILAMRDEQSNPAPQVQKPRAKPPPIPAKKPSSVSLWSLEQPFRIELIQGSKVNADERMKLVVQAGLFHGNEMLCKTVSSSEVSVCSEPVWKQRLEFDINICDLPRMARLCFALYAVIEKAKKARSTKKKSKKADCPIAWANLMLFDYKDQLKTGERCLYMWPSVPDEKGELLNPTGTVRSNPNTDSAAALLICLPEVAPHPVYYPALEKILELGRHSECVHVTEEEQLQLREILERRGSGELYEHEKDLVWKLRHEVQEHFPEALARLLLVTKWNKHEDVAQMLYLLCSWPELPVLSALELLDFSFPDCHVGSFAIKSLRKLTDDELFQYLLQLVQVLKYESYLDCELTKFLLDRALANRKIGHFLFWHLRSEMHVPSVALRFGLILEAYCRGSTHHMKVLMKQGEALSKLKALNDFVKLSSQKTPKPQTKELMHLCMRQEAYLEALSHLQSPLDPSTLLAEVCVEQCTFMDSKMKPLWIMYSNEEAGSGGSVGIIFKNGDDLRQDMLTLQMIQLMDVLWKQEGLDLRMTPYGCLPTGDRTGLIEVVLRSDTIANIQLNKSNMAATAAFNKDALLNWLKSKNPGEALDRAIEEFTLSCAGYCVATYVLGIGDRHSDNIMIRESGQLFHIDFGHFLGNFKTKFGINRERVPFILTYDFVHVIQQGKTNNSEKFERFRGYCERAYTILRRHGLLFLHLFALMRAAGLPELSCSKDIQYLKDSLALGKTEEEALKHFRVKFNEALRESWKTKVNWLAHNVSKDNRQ

[4] = Inhibition of adenosine transporter in human HeLa cells assessed as reduction in [3H]adenosine uptake preincubated for 30 mins followed by [3H]adenosine addition and measured after 60 mins; type: ADME, cell-based
[5] = target: T1, Phosphatidylinositol 4,5-bisphosphate 3-kinase catalytic subunit delta isoform; assay: Inhibition of PI3Kdelta in human whole blood assessed as reduction in anti-CD79b antibody-induced CD69 expression preincubated for 60 mins followed by anti-CD79b antibody stimulation and measured after 3 hrs by FACS analysis; type: tissue-based
[6] = target: T1, Phosphatidylinositol 4,5-bisphosphate 3-kinase catalytic subunit delta isoform; assay: Inhibition of PI3Kdelta in human whole blood assessed as reduction in antihuman IgE antibody-stimulated CD63 expression preincubated for 30 mins followed by antihuman IgE antibody stimulation and measured after 20 mins by FACS analysis; type: tissue-based
[7] = Volume of distribution in Wistar Han rat; type: ADME; details: in vivo
[8] = Unbound volume of distribution in Wistar Han rat; type: ADME; details: in vivo
[9] = Half-life in Wistar Han rat; type: ADME; details: in vivo
[10] = Protein binding in Wistar Han rat plasma; type: ADME, cell-free; details: read-out: PPB (converted)
[11] = Protein binding in human plasma; type: ADME, cell-free; details: read-out: PPB (converted)
[12] = Lipophilicity, log D of the compound; type: physicochemical; details: octanol/water
[13] = Plasma clearance in Wistar Han rat at 0.05 mg/kg; type: ADME, organism-based
[14] = Intrinsic clearance in Wistar Han rat at 0.05 mg/kg; type: ADME, organism-based; details: in vivo
[15] = target: Phosphodiesterase 1 (Homo sapiens, UniProt P54750+Q01064+Q14123); assay: Inhibition of PDE1 (unknown origin); type: protein assay
[16] = target: cGMP-dependent 3',5'-cyclic phosphodiesterase (Homo sapiens, UniProt O00408); assay: Inhibition of PDE2 (unknown origin)
[17] = target: Phosphodiesterase 3 (Homo sapiens, UniProt Q14432+Q13370); assay: Inhibition of PDE3 (unknown origin); type: protein assay
[18] = target: Phosphodiesterase 4 (Homo sapiens, UniProt P27815+Q08499+Q07343+Q08493); assay: Inhibition of PDE4 (unknown origin); type: protein assay
[19] = target: cGMP-specific 3',5'-cyclic phosphodiesterase (Homo sapiens, UniProt O76074); assay: Inhibition of PDE5 (unknown origin)
[20] = target: Phosphodiesterase 6; assay: Inhibition of PDE6 (unknown origin); type: protein assay, Homo sapiens
[21] = target: Phosphodiesterase 7 (Homo sapiens, UniProt Q13946+Q9NP56); assay: Inhibition of PDE7 (unknown origin); type: protein assay
[22] = target: High affinity cAMP-specific and IBMX-insensitive 3',5'-cyclic phosphodiesterase 8A (Homo sapiens, UniProt O60658); assay: Inhibition of PDE8 (unknown origin)
[23] = target: High affinity cGMP-specific 3',5'-cyclic phosphodiesterase 9A (Homo sapiens, UniProt O76083); assay: Inhibition of PDE9 (unknown origin)
[24] = target: cAMP and cAMP-inhibited cGMP 3',5'-cyclic phosphodiesterase 10A (Homo sapiens, UniProt Q9Y233); assay: Inhibition of PDE10 (unknown origin)
[25] = target: Dual 3',5'-cyclic-AMP and -GMP phosphodiesterase 11A (Homo sapiens, UniProt Q9HCR9); assay: Inhibition of PDE11 (unknown origin)
[26] = Plasma clearance in Wistar Han rat at 0.5 mg/kg, iv or 1 mg/kg, po; type: ADME, organism-based
[27] = organism: Homo sapiens; assay: Selectivity ratio of IC50 for N-terminal His6-tagged recombinant full length human p110alpha/untagged recombinant full length human p85alpha expressed in baculovirus infected Sf21 insect cells to IC50 for N-terminal His6-tagged recombinant full length human p110delta/untagged recombinant full length human p85alpha expressed in baculovirus infected Sf21 insect cells

PI3-kinase p110-alpha/p85-alpha, sequence (P27986 whole entry): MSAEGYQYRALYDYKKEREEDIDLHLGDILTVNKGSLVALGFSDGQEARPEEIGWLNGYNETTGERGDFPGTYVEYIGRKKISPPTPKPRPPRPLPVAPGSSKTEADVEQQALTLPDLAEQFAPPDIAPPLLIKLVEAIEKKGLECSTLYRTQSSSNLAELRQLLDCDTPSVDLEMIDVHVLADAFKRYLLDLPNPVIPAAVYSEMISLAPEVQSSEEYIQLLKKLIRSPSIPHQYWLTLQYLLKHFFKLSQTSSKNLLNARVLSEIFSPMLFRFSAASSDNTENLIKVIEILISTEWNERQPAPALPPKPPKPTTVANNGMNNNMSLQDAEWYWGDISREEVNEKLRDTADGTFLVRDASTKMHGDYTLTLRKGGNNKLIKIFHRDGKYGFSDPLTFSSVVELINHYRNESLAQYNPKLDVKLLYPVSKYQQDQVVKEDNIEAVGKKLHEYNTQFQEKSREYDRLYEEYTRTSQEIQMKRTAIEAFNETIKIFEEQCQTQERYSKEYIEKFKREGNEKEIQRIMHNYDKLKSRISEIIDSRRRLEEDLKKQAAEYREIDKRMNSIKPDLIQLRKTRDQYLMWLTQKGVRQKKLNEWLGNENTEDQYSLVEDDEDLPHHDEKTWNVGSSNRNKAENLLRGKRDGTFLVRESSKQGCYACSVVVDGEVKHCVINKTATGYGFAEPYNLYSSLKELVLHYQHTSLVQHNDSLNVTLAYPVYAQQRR
PI3-kinase p110-alpha/p85-alpha, sequence (P42336 whole entry): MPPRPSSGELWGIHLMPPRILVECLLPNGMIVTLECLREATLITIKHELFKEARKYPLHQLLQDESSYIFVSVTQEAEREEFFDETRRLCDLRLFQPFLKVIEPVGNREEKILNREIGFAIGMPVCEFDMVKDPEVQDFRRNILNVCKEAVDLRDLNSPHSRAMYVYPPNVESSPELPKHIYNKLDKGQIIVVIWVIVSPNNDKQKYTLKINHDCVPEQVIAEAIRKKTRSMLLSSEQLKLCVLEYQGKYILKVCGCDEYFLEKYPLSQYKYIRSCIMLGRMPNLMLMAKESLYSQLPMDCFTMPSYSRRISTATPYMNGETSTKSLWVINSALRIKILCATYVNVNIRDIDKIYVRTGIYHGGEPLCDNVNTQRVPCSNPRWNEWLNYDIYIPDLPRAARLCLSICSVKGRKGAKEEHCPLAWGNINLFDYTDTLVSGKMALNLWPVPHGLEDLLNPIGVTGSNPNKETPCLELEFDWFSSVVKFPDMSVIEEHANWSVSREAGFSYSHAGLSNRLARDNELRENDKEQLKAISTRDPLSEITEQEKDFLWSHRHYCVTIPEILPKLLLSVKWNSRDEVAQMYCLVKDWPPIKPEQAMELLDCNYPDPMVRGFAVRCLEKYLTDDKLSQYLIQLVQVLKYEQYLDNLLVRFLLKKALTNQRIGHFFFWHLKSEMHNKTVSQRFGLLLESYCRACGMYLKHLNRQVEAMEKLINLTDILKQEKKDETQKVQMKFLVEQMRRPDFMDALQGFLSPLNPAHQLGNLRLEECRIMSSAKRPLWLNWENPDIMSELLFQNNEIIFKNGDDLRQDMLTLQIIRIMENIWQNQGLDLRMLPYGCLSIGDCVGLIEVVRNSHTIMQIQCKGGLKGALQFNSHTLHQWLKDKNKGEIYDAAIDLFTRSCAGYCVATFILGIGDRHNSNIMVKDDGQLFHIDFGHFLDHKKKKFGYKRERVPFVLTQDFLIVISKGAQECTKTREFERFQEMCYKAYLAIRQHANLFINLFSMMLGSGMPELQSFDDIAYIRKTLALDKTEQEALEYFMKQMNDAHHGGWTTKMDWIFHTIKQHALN
PI3-kinase p110-delta/p85-alpha, sequence (P27986 whole entry, one chain of several, canonical isoform): as the sequence (P27986 whole entry) above
cAMP and cAMP-inhibited cGMP 3',5'-cyclic phosphodiesterase 10A, sequence (Q9Y233 whole entry): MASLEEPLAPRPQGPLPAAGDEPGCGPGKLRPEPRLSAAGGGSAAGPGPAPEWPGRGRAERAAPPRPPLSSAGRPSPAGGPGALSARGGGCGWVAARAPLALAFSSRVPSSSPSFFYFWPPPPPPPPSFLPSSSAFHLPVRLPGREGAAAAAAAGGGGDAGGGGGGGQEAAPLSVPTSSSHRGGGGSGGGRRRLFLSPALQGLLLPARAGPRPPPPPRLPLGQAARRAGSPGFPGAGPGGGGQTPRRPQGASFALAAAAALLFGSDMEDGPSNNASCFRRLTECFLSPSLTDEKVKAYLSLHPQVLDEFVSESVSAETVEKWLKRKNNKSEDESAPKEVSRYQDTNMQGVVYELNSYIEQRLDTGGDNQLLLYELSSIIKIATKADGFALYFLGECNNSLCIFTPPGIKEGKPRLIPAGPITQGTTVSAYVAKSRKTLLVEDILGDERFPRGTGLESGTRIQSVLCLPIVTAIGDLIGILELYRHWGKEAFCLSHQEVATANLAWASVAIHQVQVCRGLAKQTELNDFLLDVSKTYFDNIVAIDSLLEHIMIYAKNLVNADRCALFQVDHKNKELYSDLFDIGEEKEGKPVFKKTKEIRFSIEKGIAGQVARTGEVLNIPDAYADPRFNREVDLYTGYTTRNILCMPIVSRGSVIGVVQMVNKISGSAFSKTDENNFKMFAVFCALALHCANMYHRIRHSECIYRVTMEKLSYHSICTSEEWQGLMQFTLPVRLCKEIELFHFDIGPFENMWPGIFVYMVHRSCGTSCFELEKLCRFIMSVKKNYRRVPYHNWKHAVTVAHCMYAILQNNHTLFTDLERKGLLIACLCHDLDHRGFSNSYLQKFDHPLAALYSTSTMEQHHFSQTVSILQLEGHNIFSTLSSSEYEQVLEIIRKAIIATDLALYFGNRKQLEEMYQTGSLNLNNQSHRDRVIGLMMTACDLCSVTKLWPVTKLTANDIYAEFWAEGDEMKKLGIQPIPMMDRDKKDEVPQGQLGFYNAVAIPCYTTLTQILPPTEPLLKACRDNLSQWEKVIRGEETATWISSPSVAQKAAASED
High affinity cGMP-specific 3',5'-cyclic phosphodiesterase 9A, sequence (O76083 whole entry): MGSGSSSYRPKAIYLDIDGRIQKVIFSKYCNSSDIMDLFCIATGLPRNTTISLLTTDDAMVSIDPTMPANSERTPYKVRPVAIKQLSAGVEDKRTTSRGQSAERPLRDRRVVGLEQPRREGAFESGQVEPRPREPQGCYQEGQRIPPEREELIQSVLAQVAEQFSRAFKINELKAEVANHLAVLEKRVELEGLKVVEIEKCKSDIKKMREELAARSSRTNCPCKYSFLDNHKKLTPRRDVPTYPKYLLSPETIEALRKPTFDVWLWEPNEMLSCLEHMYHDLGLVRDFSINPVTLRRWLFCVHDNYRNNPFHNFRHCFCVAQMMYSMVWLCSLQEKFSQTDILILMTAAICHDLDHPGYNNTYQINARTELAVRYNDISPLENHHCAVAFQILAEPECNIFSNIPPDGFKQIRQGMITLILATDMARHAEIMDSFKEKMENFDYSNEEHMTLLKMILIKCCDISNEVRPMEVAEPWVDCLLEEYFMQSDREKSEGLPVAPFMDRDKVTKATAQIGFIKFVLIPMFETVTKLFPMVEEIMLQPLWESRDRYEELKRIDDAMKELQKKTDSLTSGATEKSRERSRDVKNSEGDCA
High affinity cAMP-specific and IBMX-insensitive 3',5'-cyclic phosphodiesterase 8A, sequence (O60658 whole entry): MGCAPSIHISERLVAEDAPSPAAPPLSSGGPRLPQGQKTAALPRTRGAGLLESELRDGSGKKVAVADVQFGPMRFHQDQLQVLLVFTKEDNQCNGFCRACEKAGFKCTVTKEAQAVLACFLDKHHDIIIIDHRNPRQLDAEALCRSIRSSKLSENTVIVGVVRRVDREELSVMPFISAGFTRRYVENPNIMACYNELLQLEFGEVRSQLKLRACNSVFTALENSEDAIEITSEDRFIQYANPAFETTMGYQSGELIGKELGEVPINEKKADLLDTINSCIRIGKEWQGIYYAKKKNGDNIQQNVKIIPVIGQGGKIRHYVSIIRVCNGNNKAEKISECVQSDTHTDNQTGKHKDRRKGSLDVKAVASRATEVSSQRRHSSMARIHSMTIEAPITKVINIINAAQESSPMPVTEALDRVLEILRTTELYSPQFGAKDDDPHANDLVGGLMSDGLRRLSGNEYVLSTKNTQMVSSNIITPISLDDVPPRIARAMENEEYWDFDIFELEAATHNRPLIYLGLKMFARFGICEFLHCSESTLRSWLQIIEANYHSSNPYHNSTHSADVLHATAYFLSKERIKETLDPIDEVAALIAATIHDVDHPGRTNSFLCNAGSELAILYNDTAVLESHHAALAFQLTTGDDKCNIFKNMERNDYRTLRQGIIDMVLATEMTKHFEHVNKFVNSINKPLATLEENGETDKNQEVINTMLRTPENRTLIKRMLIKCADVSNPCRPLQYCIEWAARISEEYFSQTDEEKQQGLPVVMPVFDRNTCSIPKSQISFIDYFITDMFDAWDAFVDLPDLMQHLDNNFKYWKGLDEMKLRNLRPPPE

Row | Structure (SMILES) | pIC50 [1] | pIC50 [2] | pIC50 [3] | pIC50 [4] | other results
1 | CCn1ncc(-c2nc3c(N[C@H]4CCN(C(=O)C5CC5)C4)ncnc3n2C)c1C | 7.46 | 9.05 | 7.89 | 5.80 | pIC50 [5]: 7.46; pIC50 [6]: 6.48; Vd [7]: 1.1 L/kg; Vdu [8]: 4 L/kg; half-life [9]: 18 min; fraction unbound [10]: 0.28; fraction unbound [11]: 0.45; logD [12]: 1; clearance [13]: 49 mL/min/kg; CL [14]: 410 mL/min/kg
2 | CCn1ncc(-c2nc3c(N[C@H]4CCN(C(=O)C5CCOCC5)C4)ncnc3n2C)c1C | 7.46 | 9.30 | 7.80 | 5.04 | IC50 [15]: > 20000 nM; pIC50 [16]: < 4.70; IC50 [17]: > 20000 nM; IC50 [18]: > 20000 nM; pIC50 [19]: < 4.70; IC50 [20]: > 20000 nM; IC50 [21]: > 20000 nM; pIC50 [22]: < 4.70; pIC50 [23]: < 4.70; pIC50 [24]: < 4.70; pIC50 [25]: < 4.70; clearance [26]: 95 mL/min/kg; Vd [7]: 1.7 L/kg; Vdu [8]: 3 L/kg; half-life [9]: 12 min; fraction unbound [10]: 0.52; logD [12]: 0.8; clearance [13]: 95 mL/min/kg
3 | CCn1ncc(-c2nc3c(NC4CC(=O)N(CC(C)C)C4)ncnc3n2C)c1C (stereo not given) | 6.92 | 8.37 | 7.35 | 5.65 | –
4 | CC[C@H](Nc1ncnc2c1nc(-c1cnn(CC)c1C)n2C)C(=O)N1CCOCC1 | 6.56 | – | – | – | –
5 | CCn1ncc(-c2nc3c(S[C@H]4CCN(C(=O)C5CCOCC5)C4)ncnc3n2C)c1C | 6.22 | 7.82 | 6.24 | 5.85 | –
6 | CCCN1CC[C@H](Nc2ncnc3c2nc(-c2cnn(CC)c2C)n3C)C1 | 5.88 | – | 5.89 | 5.59 | –
7 | CCn1ncc(-c2nc3c(Oc4csc(C(=O)N5CCOCC5)c4)ncnc3n2C)c1C | 5.53 | 7.17 | 6.01 | 5.35 | –
8 | CCn1ncc(-c2nc3c(NC4CCN(CC(C)C)C4=O)ncnc3n2C)c1C (racemic) | 5.75 | 5.87 | 5.08 | 5.15 | –
9 | CCC(=O)N1CC[C@@H](Nc2ncnc3c2nc(-c2cnn(CC)c2C)n3C)C1 | 6.27 | 7.59 | 6.73 | < 6.00 | –
10 | CCn1ncc(-c2nc3c(N[C@H]4CC[C@@H](C(=O)N5CCOCC5)C4)ncnc3n2C)c1C | 7.05 | 7.96 | 6.82 | 5.26 | –
11 | CCn1ncc(-c2nc3c(CC4CCN(C(=O)C5CCOCC5)C4)ncnc3n2C)c1C (racemic) | < 5.00 | 6.53 | 5.08 | < 5.00 | –
12 | CCC(=O)N1CC(Nc2ncnc3c2nc(-c2cnn(CC)c2C)n3C)C1 | 6.04 | – | 5.66 | < 5.00 | Ratio IC50 [27]: 16
13 | CCn1ncc(-c2nc3c(N[C@H](C)C(=O)N4CCOCC4)ncnc3n2C)c1C | < 5.00 | 5.96 | – | < 5.00 | –
14 | CCC(=O)N1CCC[C@H](Nc2ncnc3c2nc(-c2cnn(CC)c2C)n3C)C1 | 6.47 | – | 6.51 | 5.41 | –
15 | CC[C@H](Nc1ncnc2c1nc(-c1cnn(CC)c1C)n2C)C(=O)N(C)C | 5.97 | 7.47 | 5.83 | < 5.00 | –
16 | CCn1ncc(-c2nc3c(NC4CN(C(=O)C5CCOCC5)C4)ncnc3n2C)c1C | 6.34 | – | 5.56 | < 5.00 | Ratio IC50 [27]: 28
17 | CCC(=O)N1CC[C@H](Nc2ncnc3c2nc(-c2cnn(CC)c2C)n3C)C1 | 7.03 | 8.80 | 7.62 | 5.14 | IC50 [15]: > 20000 nM; pIC50 [16]: < 4.70; IC50 [17]: > 20000 nM; IC50 [18]: 8400 nM; pIC50 [19]: < 4.70; IC50 [20]: > 20000 nM; IC50 [21]: > 20000 nM; pIC50 [22]: < 4.70; pIC50 [23]: < 4.70; pIC50 [24]: < 4.70; pIC50 [25]: < 4.70; Vd [7]: 1.8 L/kg; Vdu [8]: 4 L/kg; half-life [9]: 24 min; fraction unbound [10]: 0.49; logD [12]: 0.8; clearance [13]: 58 mL/min/kg; CL [14]: 370 mL/min/kg
18 | CCn1ncc(-c2nc3c(N[C@@H](C)C(=O)N4CCOCC4)ncnc3n2C)c1C | 6.39 | 7.62 | 6.14 | 5.18 | –
19 | CCC(=O)N1CCC(Nc2ncnc3c2nc(-c2cnn(CC)c2C)n3C)CC1 | 5.92 | 6.10 | – | < 5.00 | –
